Measured values reported in patent publication US11214803B2, “Modulators of YAP1 expression” (Ionis Pharmaceuticals, Inc., priority 2019, dated 2022).
Strand notation (5' to 3'): a small letter for the sugar, then the base; units joined by * are phosphorothioate-linked, units joined directly phosphodiester-linked; [ ] holds rarer units or linkages, { } end groups; capitals alone tell only the bases. k = constrained ethyl (cEt); [5mC] = 5-methylcytosine; d = 2'-deoxy (DNA)

Tested on: Yap1 mRNA
Test: Antisense inhibition of human Yap1 in A-431 cells by cEt gapmers, single dose (Example 2, RTS4814)
Type: cell-based
Experimental: Modified oligonucleotides were designed to target a Yap1 nucleic acid and were tested for their effect on Yap1 mRNA level in vitro. The modified oligonucleotides were tested in a series of experiments that had similar culture conditions. Cultured A-431 cells at a density of 5,000 cells per well were treated using free uptake with 2,000 nM of modified oligonucleotide. After a treatment period of approximately 48 hours, RNA was isolated from the cells and Yap1 mRNA levels were measured by quantitative real-time RTPCR. Human primer probe set RTS4814 was used to measure mRNA levels. Yap1 mRNA levels were normalized to total RNA content, as measured by RIBOGREEN®. Results are presented in the tables below as percent control of the amount of Yap1 mRNA relative to untreated control cells (% UTC). The modified oligonucleotides with percent control values marked with an asterisk (*) target the amplicon region of the primer probe set. Additional assays may be used to measure the potency and efficacy of the modified oligonucleotides targeting the amplicon region.
The newly designed modified oligonucleotides in the Tables below were designed as 3-10-3 cEt gapmers. The gapmers are 16 nucleosides in length, wherein the central gap segment comprises of ten 2′-deoxynucleosides and is flanked by wing segments on the 5′ direction and the 3′ direction comprising three nucleosides each. Each nucleoside in the 5′ wing segment and each nucleoside in the 3′ wing segment has a cEt sugar modification. The internucleoside linkages throughout each gapmer are phosphorothioate (P═S) linkages. All cytosine residues throughout each gapmer are 5-methylcytosines.
“Start site” indicates the 5′-most nucleoside to which the gapmer is targeted in the human gene sequence. “Stop site” indicates the 3′-most nucleoside to which the gapmer is targeted human gene sequence. […] Activity ofthe modified oligonucleotide may be defined in a different experiment.

[1] = Table 22, Yap1 mRNA as percent of untreated control, 3-10-3 cEt gapmers, single dose
[2] = Table 18, A-431 cells, 5,000 cells per well, free uptake, 2,000 nM modified oligonucleotide, approx. 48 hours, RTS4814, normalized to RIBOGREEN, Yap1 mRNA as percent of untreated control
[3] = Table 21, Yap1 mRNA, percent of untreated control, 3-10-3 cEt gapmers targeting SEQ ID NO.: 1 and 2

Substance: 1075368 (kG*kA*kG*dA*dA*dT*dA*dA*dG*d[5mC]*dA*dA*dT*k[5mC]*kA*kG; antisense) [Compound 1075368]
- YAP1 (% UTC) [1]: 24 % UTC

Substance: 1075877 (k[5mC]*kT*kG*dG*dA*dA*dA*dA*dG*dT*dA*d[5mC]*dA*kT*kT*k[5mC]; antisense) [Compound 1075877]
- YAP1 (% UTC) (Table 19, A-431 cells, 5,000 cells per well, free uptake, 2,000 nM modified oligonucleotide, approx. 48 hours, RTS4814, normalized to RIBOGREEN, Yap1 mRNA as percent of untreated control): 28 % UTC

Substance: 1076106 (k[5mC]*kT*kA*d[5mC]*dG*dA*dA*dA*dT*dA*dG*dT*dA*kA*k[5mC]*kT; antisense) [Compound 1076106]
- YAP1 (% UTC) (Table 24, Yap1 mRNA as percent of untreated control, 3-10-3 cEt gapmers targeting SEQ ID NO.: 1, and 2): 77 % UTC

Substance: 1075763 (kA*kT*kT*dT*dA*dG*dG*d[5mC]*dT*dT*dT*dG*dG*kG*kT*kT; antisense) [compound 1075763]
- YAP1 (% UTC) (Table 33, Yap1 mRNA, percent of untreated control, 3-10-3 cEt gapmers targeting SEQ ID NO.: 1, and 2): 16 % UTC

Substance: 716482 (k[5mC]*kT*kA*dT*d[5mC]*d[5mC]*dA*dG*dG*dG*dT*d[5mC]*dA*kA*kT*kT; antisense) [Compound 716482]
- YAP1 (% UTC) (Table 5, A-431 cells, 5,000 cells per well, free uptake, 2,000 nM modified oligonucleotide, approx. 48 hours, RTS4814, normalized to RIBOGREEN, Yap1 mRNA relative to untreated control cells): 83 % UTC

Substance: 1076137 (k[5mC]*kA*k[5mC]*d[5mC]*dA*dA*d[5mC]*dA*dA*d[5mC]*d[5mC]*dT*d[5mC]*kA*kT*kG; antisense) [Compound 1076137]
- YAP1 (% UTC) (Table 23, Yap1 mRNA as percent of untreated control, 3-10-3 cEt gapmers, single dose): 45 % UTC

Substance: 1075012 (antisense k[5mC]*kT*kA*dT*dT*dG*dG*dA*dA*dT*dG*dT*dT*kA*kA*k[5mC]) [Compound 1075012]
- YAP1 (% UTC) [2]: 119 % UTC

Substance: 1074887 (antisense kT*kA*kG*d[5mC]*d[5mC]*dT*dG*dA*dA*dG*d[5mC]*dA*dA*kG*kT*kT) [Compound 1074887]
- YAP1 (% UTC) [3]: 57 % UTC

Substance: 1075335 (k[5mC]*kT*kT*dA*dA*dT*dA*dA*dT*d[5mC]*dT*dA*d[5mC]*k[5mC]*kA*kG; antisense) [Compound 1075335]
- YAP1 (% UTC) [3]: 30 % UTC

Substance: 1074984 (antisense kA*kT*k[5mC]*dA*d[5mC]*d[5mC]*dT*dT*dT*dT*dA*dT*dT*kG*k[5mC]*k[5mC]) [Compound 1074984]
- YAP1 (% UTC) [1]: 31 % UTC

Substance: 716418 (k[5mC]*k[5mC]*kT*dG*dA*dG*dG*dG*d[5mC]*dT*d[5mC]*dT*dA*kT*kA*kA; antisense) [Compound 716418]
- YAP1 (% UTC) (A-431 cells, 5,000 cells per well, free uptake, 2,000 nM modified oligonucleotide, approx. 48 hours, RTS4814, normalized to RIBOGREEN, Table 4, asterisk (*) = targets amplicon region of primer probe set): 75 % UTC

Substance: 1076196 (kT*kA*kT*d[5mC]*dA*dA*dG*dG*dG*dA*dA*dT*dT*kA*kT*kT; antisense) [Compound 1076196]
- YAP1 (% UTC) [2]: 113 % UTC

Substance: 1075761 (kG*kG*kA*dG*dA*dA*dA*dA*dA*d[5mC]*dT*dA*d[5mC]*kG*kG*kA; antisense) [compound 1075761]
- YAP1 (% UTC) (Yap1 mRNA as percent of untreated control, A-431 cells, 3-10-3 cEt gapmers targeting SEQ ID NO.: 1, and 2, Table 31): 13 % UTC

Substance: 1075112 (antisense kA*kT*kA*dT*dA*dG*dG*dA*dA*dT*dA*dT*dG*kG*kG*kT) [Compound 1075112]
- YAP1 (% UTC) [1]: 6 % UTC

Substance: 716399 (kA*kA*kT*dT*dT*dG*d[5mC]*dT*dG*dT*dG*d[5mC]*dT*kG*kG*kG; antisense) [Compound 716399]
- YAP1 (% UTC) (Table 6, A-431 cells, 5,000 cells per well, free uptake, 2,000 nM modified oligonucleotide, approx. 48 hours, RTS4814, normalized to RIBOGREEN, Yap1 mRNA relative to untreated control cells): 40 % UTC

Substance: 1076112 (kA*kT*kT*d[5mC]*dA*dA*dA*dA*d[5mC]*d[5mC]*dA*d[5mC]*dG*kG*kA*kA; antisense) [compound 1076112]
- YAP1 (% UTC) (Yap1 mRNA as percent of untreated control, A-431 cells, 3-10-3 cEt gapmers targeting SEQ ID NO.: 1, and 2, Table 30): 98 % UTC
